Test results reported in patent US10259781B2, “Imaging agents” (THE REGENTS OF THE UNIVERSITY OF MICHIGAN, priority 2012, dated 2019).
“Also recorded” adds a separate entry of the source.

Tests used:
[1] = test system: cardiac sympathetic neurons; experiment: Isolated working rat heart model: neuronal uptake and clearance kinetics
Protocol: The radiotracer was infused into the heart for 10 minutes to measure the tracer uptake rate into cardiac sympathetic neurons (Kup, shown in units of ml/min/g tissue wet). Then, the heart was infused with normal heart perfusate to measure the tracer clearance rate from the heart over 2 hours.
Experiments were conducted to test ^11C-phenoxyethylguanidine (PEG), e.g., to establish baseline values for the NET transport rate (Kup, expressed in units of mL perfusate/min/g wet) and the clearance rate from sympathetic neurons (T1/2, expressed in units of hours).

[2] = Metabolic breakdown in monkey plasma (reverse-phase HPLC of venous blood samples); type: in vivo, rhesus macaque monkey; conditions: rhesus monkeys
Protocol: In some of the microPET studies, venous blood samples (e.g., n=6) were drawn to assess the metabolic breakdown of [^18F]4F-MHPG in plasma (see Table 1). Plasma was processed for injection onto a reverse-phase HPLC system equipped with a radiation detector. The percentages of intact parent tracer and radiolabeled metabolites were determined as a function of time. In this system, [^18F]4-MHPG has a retention time Rt of approximately 11.2 minutes while the main polar radiometabolite formed has an Rt of approximately 7.9 minutes.

[3] = target: T1, norepinephrine transporters (NET) (Macaca mulatta, UniProt Q9MYW8); experiment: Desipramine (DMI) block of the neuronal uptake of [18F]4F-MHPG, microPET; type: in vivo, rhesus macaque monkey
T1 construct: from tissue; host or cells: heart (presynaptic sympathetic nerve terminals) of living rhesus macaque monkeys, microPET in vivo
T1 sequence (Q9MYW8 1-617): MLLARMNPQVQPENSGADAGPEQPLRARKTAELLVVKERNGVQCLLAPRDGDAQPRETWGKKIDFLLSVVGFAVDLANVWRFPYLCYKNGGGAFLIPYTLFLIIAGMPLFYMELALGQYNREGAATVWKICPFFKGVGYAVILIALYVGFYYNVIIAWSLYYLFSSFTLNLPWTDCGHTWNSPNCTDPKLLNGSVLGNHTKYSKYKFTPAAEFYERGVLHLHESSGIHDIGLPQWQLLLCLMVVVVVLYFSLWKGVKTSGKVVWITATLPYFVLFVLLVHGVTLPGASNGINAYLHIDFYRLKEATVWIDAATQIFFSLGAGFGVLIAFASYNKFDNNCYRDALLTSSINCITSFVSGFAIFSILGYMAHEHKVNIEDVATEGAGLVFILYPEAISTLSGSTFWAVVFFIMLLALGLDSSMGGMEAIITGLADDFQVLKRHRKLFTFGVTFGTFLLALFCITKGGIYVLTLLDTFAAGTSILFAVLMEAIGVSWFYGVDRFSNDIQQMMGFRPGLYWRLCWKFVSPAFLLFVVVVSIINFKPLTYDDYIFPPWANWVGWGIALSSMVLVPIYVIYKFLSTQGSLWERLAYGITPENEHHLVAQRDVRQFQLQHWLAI
Excerpt: Additional data were collected and Patlak analyses performed.
Orthogonal slice images were acquired for comparison with data from a control study.

[4] = Human radiation absorbed dose estimates, OLINDA/EXM 1.0, from rat biodistribution
Protocol: (§1) During the development of embodiments of the technology provided herein, the biodistribution of [^18F]4F-MHPG into the organs of rats was assessed. In particular, four time points (Table 3) were collected and used to derive human radiation absorbed dose estimates using the OLINDA/EXM 1.0 software package (see, e.g., Stabin et al. (2005) “OLINDA/EXM; the second-generation personal computer software for internal dose assessment in nuclear medicine”, J Nucl Med. 46: 1023-7). […] These values were entered into the Dynamic Bladder model of OLINDA/EXM, assuming a 4.0-hour void interval. Organs with the highest absorbed dose estimates included the urinary bladder wall (0.666 rad/mCi), […] (0.221 rad/mCi), small intestine (0.201 rad/mCi), and the heart wall (0.201 rad/mCi). An ‘effective dose’ of 0.091 rem/mCi was estimated for [^18F]4F-MHPG. Under United States Federal Regulations governing research with a new radiopharmaceutical (21 CFR § 361.1), the maximum allowable radiation absorbed dose to an individual organ (other than the gonads) is 5 rad. Considering the maximum estimated absorbed dose (urinary bladder wall; 0.666 rad/mCi), initial PET studies in human subjects could use a maximum of 7.5 mCi of [^18F]4F-MHPG. This would correspond to an ‘effective dose’ of 0.68 rem.

[5] = MicroPET imaging studies in rats: excretion through the bladder; type: in vivo, rat
Protocol: as §1

metabolism in plasma [2]: rapidly metabolized | specificity of myocardial uptake for cardiac sympathetic neurons ([3]; control vs DMI block): 100% | nonspecific binding in heart tissue ([3]; highest dose DMI block study): very low; also recorded: extremely low | effective dose for a maximum of 7.5 mCi ([4]; initial PET studies in human subjects, 7.5 mCi): 0.68 rem | Effective dose ([4]; reference adult male model): 0.091 rem/mCi | Effective dose, Dose for 10 mCi ([4]; reference adult male model): 0.91 rem | Radiation absorbed dose estimate, Dose for 10 mCi, Adrenals ([4]; reference adult male model): 0.59 rad | Radiation absorbed dose estimate, Dose for 10 mCi, Brain ([4]; reference adult male model): 0.25 rad | Radiation absorbed dose estimate, Dose for 10 mCi, Breasts ([4]; reference adult male model): 0.26 rad | Radiation absorbed dose estimate, Dose for 10 mCi, Gallbladder wall ([4]; reference adult male model): 0.61 rad | Radiation absorbed dose estimate, Dose for 10 mCi, Heart wall ([4]; reference adult male model): 1.09 rad | Radiation absorbed dose estimate, Dose for 10 mCi, Kidneys ([4]; reference adult male model): 0.78 rad | Radiation absorbed dose estimate, Dose for 10 mCi, LLI wall ([4]; reference adult male model): 1.07 rad | Radiation absorbed dose estimate, Dose for 10 mCi, Liver ([4]; reference adult male model): 0.96 rad | Radiation absorbed dose estimate, Dose for 10 mCi, Lungs ([4]; reference adult male model): 0.35 rad | Radiation absorbed dose estimate, Dose for 10 mCi, Muscle ([4]; reference adult male model): 0.37 rad | Radiation absorbed dose estimate, Dose for 10 mCi, Osteogenic cells ([4]; reference adult male model): 0.49 rad | Radiation absorbed dose estimate, Dose for 10 mCi, Ovaries ([4]; reference adult male model): 0.88 rad | Radiation absorbed dose estimate, Dose for 10 mCi, Pancreas ([4]; reference adult male model): 0.63 rad | Radiation absorbed dose estimate, Dose for 10 mCi, Red marrow ([4]; reference adult male model): 0.37 rad | Radiation absorbed dose estimate, Dose for 10 mCi, Skin ([4]; reference adult male model): 0.26 rad | Radiation absorbed dose estimate, Dose for 10 mCi, Small intestine ([4]; reference adult male model): 2.01 rad | Radiation absorbed dose estimate, Dose for 10 mCi, Spleen ([4]; reference adult male model): 0.79 rad | Radiation absorbed dose estimate, Dose for 10 mCi, Stomach wall ([4]; reference adult male model): 0.48 rad | Radiation absorbed dose estimate, Dose for 10 mCi, Testes ([4]; reference adult male model): 0.41 rad | Radiation absorbed dose estimate, Dose for 10 mCi, Thymus ([4]; reference adult male model): 0.33 rad | Radiation absorbed dose estimate, Dose for 10 mCi, Thyroid ([4]; reference adult male model): 0.29 rad | Radiation absorbed dose estimate, Dose for 10 mCi, Total body ([4]; reference adult male model): 0.41 rad | Radiation absorbed dose estimate, Dose for 10 mCi, ULI wall ([4]; reference adult male model): 2.21 rad | Radiation absorbed dose estimate, Dose for 10 mCi, Urinary bladder wall ([4]; reference adult male model): 6.66 rad | Radiation absorbed dose estimate, Dose for 10 mCi, Uterus ([4]; reference adult male model): 1.03 rad | Radiation absorbed dose estimate, Total dose, Adrenals ([4]; reference adult male model): 0.059 rad/mCi | Radiation absorbed dose estimate, Total dose, Brain ([4]; reference adult male model): 0.025 rad/mCi | Radiation absorbed dose estimate, Total dose, Breasts ([4]; reference adult male model): 0.026 rad/mCi | Radiation absorbed dose estimate, Total dose, Gallbladder wall ([4]; reference adult male model): 0.061 rad/mCi | Radiation absorbed dose estimate, Total dose, Heart wall ([4]; reference adult male model): 0.109 rad/mCi | Radiation absorbed dose estimate, Total dose, Kidneys ([4]; reference adult male model): 0.078 rad/mCi | Radiation absorbed dose estimate, Total dose, LLI wall ([4]; reference adult male model): 0.107 rad/mCi | Radiation absorbed dose estimate, Total dose, Liver ([4]; reference adult male model): 0.096 rad/mCi | Radiation absorbed dose estimate, Total dose, Lungs ([4]; reference adult male model): 0.035 rad/mCi | Radiation absorbed dose estimate, Total dose, Muscle ([4]; reference adult male model): 0.037 rad/mCi | Radiation absorbed dose estimate, Total dose, Osteogenic cells ([4]; reference adult male model): 0.049 rad/mCi | Radiation absorbed dose estimate, Total dose, Ovaries ([4]; reference adult male model): 0.088 rad/mCi | Radiation absorbed dose estimate, Total dose, Pancreas ([4]; reference adult male model): 0.063 rad/mCi | Radiation absorbed dose estimate, Total dose, Red marrow ([4]; reference adult male model): 0.037 rad/mCi | Radiation absorbed dose estimate, Total dose, Skin ([4]; reference adult male model): 0.026 rad/mCi | Radiation absorbed dose estimate, Total dose, Small intestine ([4]; reference adult male model): 0.201 rad/mCi | Radiation absorbed dose estimate, Total dose, Spleen ([4]; reference adult male model): 0.079 rad/mCi | Radiation absorbed dose estimate, Total dose, Stomach wall ([4]; reference adult male model): 0.048 rad/mCi | Radiation absorbed dose estimate, Total dose, Testes ([4]; reference adult male model): 0.041 rad/mCi | Radiation absorbed dose estimate, Total dose, Thymus ([4]; reference adult male model): 0.033 rad/mCi | Radiation absorbed dose estimate, Total dose, Thyroid ([4]; reference adult male model): 0.029 rad/mCi | Radiation absorbed dose estimate, Total dose, Total body ([4]; reference adult male model): 0.041 rad/mCi | Radiation absorbed dose estimate, Total dose, ULI wall ([4]; reference adult male model): 0.221 rad/mCi | Radiation absorbed dose estimate, Total dose, Urinary bladder wall ([4]; reference adult male model): 0.666 rad/mCi | Radiation absorbed dose estimate, Total dose, Uterus ([4]; reference adult male model): 0.103 rad/mCi | biological half-time of excretion through the bladder [5]: 0.20±0.02 hours | injected dose excreted through the bladder [5]: 19.9±0.2%
SMILES: N=C(N)NCCc1ccc(F)c(O)c1 [[^18F]4F-MHPG] [4-[^18F]fluoro-meta-hydroxy-phenethylguanidine]
kinetics compared with [11C]4F-MHPG [1]: almost identical
